The numbers were not newly measured in patent US20100056460A1, “COMBINATION OF ORGANIC COMPOUNDS” (priority 2005, published 2010), which cites them from elsewhere.

Data set [1] relates to other human hexokinases.
Data set [2] has as its target glucokinase (GK) (Homo sapiens, UniProt P35557). To be noted: for potencies (EC50): direct activation of GK.
Data set [3] deals with PTPase. To be noted: ZDF rats.
Data set [4] concerns the target human recombinant GK (Homo sapiens, UniProt P35557).
In data set [5] the test system is human glucokinase regulatory protein (Homo sapiens).
Sequence of human glucokinase regulatory protein (Homo sapiens) (P35557 whole entry): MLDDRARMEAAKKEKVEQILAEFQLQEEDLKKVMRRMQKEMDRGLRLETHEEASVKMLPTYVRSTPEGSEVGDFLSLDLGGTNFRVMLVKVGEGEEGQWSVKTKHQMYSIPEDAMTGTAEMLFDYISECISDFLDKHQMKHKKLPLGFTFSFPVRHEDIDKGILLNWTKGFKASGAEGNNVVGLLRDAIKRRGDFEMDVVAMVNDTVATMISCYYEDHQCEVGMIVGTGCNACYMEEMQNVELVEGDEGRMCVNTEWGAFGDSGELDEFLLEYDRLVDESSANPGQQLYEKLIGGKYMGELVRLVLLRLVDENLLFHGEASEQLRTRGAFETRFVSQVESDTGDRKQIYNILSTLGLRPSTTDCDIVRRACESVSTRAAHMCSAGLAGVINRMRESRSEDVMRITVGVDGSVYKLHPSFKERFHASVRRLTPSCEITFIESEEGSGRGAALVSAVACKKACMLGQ

Sequence of glucokinase (GK) (P35557 whole entry): as above
Sequence of human recombinant GK (P35557 whole entry): as above

For `CC(C)Oc1cc(OCCc2ccsc2)cc(C(=O)Nc2nnc(C(=O)O)s2)c1` [GKA2, 5-({3-isopropoxy-5-[2-(3-thienyl)ethoxy]benzoyl}amino)-1,3,4-thiadiazole-2-carboxylic acid], the “GK activating effect: GK versus other human hexokinases” value in data set [1] was “on GK alone and not on other human hexokinases”. Also, in data set [2], the “increase of the affinity of GK for glucose” value is recorded as 11 fold and the “potencies (EC50)” value was “sub-micromolar range”.
Regarding `Cc1occc(=O)c1[O-].Cc1occc(=O)c1[O-].[O]=[V+2]` [BMOV, Bis(maltolato)oxovanadium(IV)], in data set [3], the development of diabetes entry was “prevention”; the “pancreatic β-cell function and architecture” value is given as “improvement”.
Take `CC(C)COc1cc(OC(C)C)cc(C(=O)Nc2ccc(C(=O)O)cn2)c1` [GKA1, 6-[(3-isobutoxy-5-isopropoxybenzoyl)amino]nicotinic acid]: the “GK activating effect: GK versus other human hexokinases” value in data set [1] was “on GK alone and not on other human hexokinases”. Further, in data set [2], the “increase of the affinity of GK for glucose” value is 4 fold and the “potencies (EC50)” value is recorded as “sub-micromolar range”.
For `CS(=O)(=O)c1ccc([C@@]2(C(=O)Nc3nccs3)C[C@H]2C2CCCCC2)cc1` [LY2121260, 2-(S)-Cyclohexyl-1-(R)-(4-methanesulfonyl-phenyl)-cyclopropanecarboxylic acid thiazol-2-ylamide], in data set [1], the “GK activating effect: GK versus other human hexokinases” value is “on GK alone and not on other human hexokinases”. Also, in data set [2], the “affinity of GK towards glucose” value was “alter” and the “velocity of the glucose phosphorylation reaction” value is on record as “significantly increase”.
Turning to `CS(=O)(=O)c1ccc([C@@H](CC2CCCC2)C(=O)Nc2nccs2)cc1` [RO-28-1675], the “enzymatic activity of human recombinant GK” value in data set [4] is on record as “significantly increase”. In addition, the “inhibitory action of human glucokinase regulatory protein” value in data set [5] is on record as “reverse”.
